PMC12584752, “Covalent fragment screening to inhibit the E3 ligase activity of bacterial NEL enzymes SspH1 and SspH2” (RSC Chemical Biology, 2025)

Tests used:
[1] = test system: mammalian proteins in HEK293T cells; assay: In cellulo IA-DTB chemoproteomics, off-target engagement; format: cell-based, human; conditions: live HEK293T cells, 50 μM, four hours
Method: Fig. 5 Characterisation of protein interactions by compounds 6 and 7. (A) SspH1 and SspH2 catalytic cysteine labelling with compound 6 (100–3.125 μM, 4 hours) in HEK293T lysate spiked with recombinant SspH1 and SspH2. Data are presented as mean ± SEM, n = 4. The curves were fitted with GraphPad Prism 10 using four parameter nonlinear regression with baseline correction to DMSO-treated samples. (B) SspH1 and SspH2 catalytic cysteine labelling with compound 7 (100–3.125 μM, 4 hours) in HEK293T lysate spiked with recombinant SspH1 and SspH2. Data are presented as mean ± SEM, n = 4. The curves were fitted with GraphPad Prism 10 using four parameter nonlinear regression with baseline correction to DMSO-treated samples. (C) Volcano plot of IA-DTB competition in SspH1 expressing HEK293T cells treated with compound 6 (50 μM, 4 hours). (D) Volcano plot of IA-DTB competition in SspH2 expressing HEK293T cells treated with compound 6 (50 μM, 4 hours). Data is shown as compared to DMSO treated samples, with competed peptides in the upper left-hand quadrant. […]
All cells were grown in DMEM media (Gibco, 41966-029) supplemented with FBS (ThermoFisher, A5256701) and Pen/Strep (Gibco, 15140-122) at 37 °C with 5% CO2. […] Protein concentrations were measured using a Rapid BCA Gold Protein Assay Kit (Thermo Scientific, A53226) and diluted to 1 mg mL^−1 with lysis buffer. […]

SspH1 (161–700) = SspH1 (161–700) (Salmonella typhimurium, UniProt D0ZVG2); assay: E2–Ub discharge assay; format: biochemical; parameters: Recombinant IpaH9.8 (21–545) and SspH1 (161–700) were incubated at 0.5 μM; His-tag (N, cleaved yes); made in house; host or cells: E. coli BL21; conditions: SspH1 pre-labelled with compound overnight at RT; UbcH5A–Ub-cy3 1 μM, 0–30 minutes
Text: We next wanted to understand whether compounds 6 and 7 interfered with SspH1 E3 activity and turned to in vitro assays to assess E3 ligase activity. In the absence of substrate, NEL E3 ligases non-productively discharge ubiquitin from the E2–Ub thioester, a reaction that proceeds via an unstable E3-thioester intermediate.[27] This activity can be followed by E2–Ub discharge assays (Fig. 4A). We compared discharge activity of SspH1 with UbcH5A–Ub-cy3 (E2–Ub*) pre-treated with a DMSO control or compounds 6 or 7 (Fig. 4B). To ensure complete compound labelling, SspH1 was pre-incubated with the compounds overnight at room temperature, as opposed to at 4 °C which enabled us to study kinetics previously.
Fig. 4 SspH1 in vitro inhibition with compounds 6 and 7. (A) Discharge assay schematic; (B) E2–Ub discharge time course assay with SspH1 pre-treated with either DMSO or compounds 6 or 7. UbcH5A–Ub-cy3 (1 μM) was incubated at RT for 0–30 minutes with SspH1 (residues 161–700, 50 nM) which had been pre-labelled with 6 or 7 at RT overnight. (C) Substrate ubiquitination assay schematic; (D) PKN1 ubiquitination time course assay with SspH1 pre-treated with either DMSO or compounds 6 or 7. […]

Sequence of SspH1 (161–700) (D0ZVG2 161-700): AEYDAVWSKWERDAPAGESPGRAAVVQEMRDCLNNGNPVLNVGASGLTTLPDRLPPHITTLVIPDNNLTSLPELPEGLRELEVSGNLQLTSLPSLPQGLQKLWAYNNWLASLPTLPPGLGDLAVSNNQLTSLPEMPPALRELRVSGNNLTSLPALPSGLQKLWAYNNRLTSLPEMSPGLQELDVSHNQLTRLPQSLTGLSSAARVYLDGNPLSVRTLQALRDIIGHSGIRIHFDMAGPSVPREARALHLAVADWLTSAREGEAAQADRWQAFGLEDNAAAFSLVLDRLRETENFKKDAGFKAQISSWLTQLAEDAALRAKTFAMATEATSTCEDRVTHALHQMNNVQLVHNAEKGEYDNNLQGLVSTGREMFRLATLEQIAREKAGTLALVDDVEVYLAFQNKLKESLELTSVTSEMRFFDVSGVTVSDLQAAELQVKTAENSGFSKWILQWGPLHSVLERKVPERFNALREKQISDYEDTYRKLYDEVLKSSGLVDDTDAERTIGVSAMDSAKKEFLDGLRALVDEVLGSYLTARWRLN

| Structure (SMILES) | engagement of catalytic cysteines-containing peptides of HECT or RBR E3 ligases, or DUBs [1] | engagement of mammalian proteins [1] | SspH1 E2–Ub discharge activity (SspH1 (161–700)) |
| --- | --- | --- | --- |
| Cc1cc(-c2nc3ccccc3n2C2CCN(C(=O)CCl)CC2)cc(C)c1O.Cl [compound 6] | none | engagement of multiple mammalian proteins | completely abrogated |
| Cl.O=C(CCl)N1CCC(n2c(-c3ccc(C(F)(F)F)cc3)nc3ccccc32)CC1 [compound 7] |  |  | completely abrogated |
